# Measured values published in ChEMBL document CHEMBL1153947, “Carbonic anhydrase inhibitors. Inhibition of cytosolic isoforms I, II, III, VII and XIII with less investigated inorganic anions” (Bioorg Med Chem Lett, 2009).
# pKi: −log10 of the molar value.
# Legend:
# [1] = molecular target: Carbonic anhydrase 1 (Homo sapiens, UniProt P00915); assay: Inhibition of human recombinant carbonic anhydrase 1-catalyzed CO2 hydration by stopped flow assay
# [2] = molecular target: Carbonic anhydrase 13 (Mus musculus, UniProt Q9D6N1); assay: Inhibition of mouse recombinant carbonic anhydrase 13-catalyzed CO2 hydration by stopped flow assay
# Carbonic anhydrase 13, sequence (Q9D6N1 whole entry): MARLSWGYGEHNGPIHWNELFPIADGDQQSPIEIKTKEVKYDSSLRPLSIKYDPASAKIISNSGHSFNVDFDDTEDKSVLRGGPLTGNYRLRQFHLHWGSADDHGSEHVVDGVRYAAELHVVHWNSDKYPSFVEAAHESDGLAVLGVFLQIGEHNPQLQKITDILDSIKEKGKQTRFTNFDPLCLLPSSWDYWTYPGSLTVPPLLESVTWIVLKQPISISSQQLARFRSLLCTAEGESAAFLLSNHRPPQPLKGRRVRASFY
# [3] = molecular target: Carbonic anhydrase 7 (Homo sapiens, UniProt P43166); assay: Inhibition of human recombinant carbonic anhydrase 7-catalyzed CO2 hydration by stopped flow assay
# Carbonic anhydrase 7, sequence (P43166 whole entry): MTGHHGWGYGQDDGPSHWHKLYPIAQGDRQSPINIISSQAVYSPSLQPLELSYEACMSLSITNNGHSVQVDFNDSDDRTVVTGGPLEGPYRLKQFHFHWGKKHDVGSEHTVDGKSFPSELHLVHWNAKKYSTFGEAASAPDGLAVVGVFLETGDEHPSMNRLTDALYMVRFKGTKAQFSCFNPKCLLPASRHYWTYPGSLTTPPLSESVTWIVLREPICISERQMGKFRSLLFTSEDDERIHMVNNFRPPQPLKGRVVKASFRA
# [4] = molecular target: Carbonic anhydrase 2 (Homo sapiens, UniProt P00918); assay: Inhibition of human recombinant carbonic anhydrase 2-catalyzed CO2 hydration by stopped flow assay
# Carbonic anhydrase 1, sequence (P00915 whole entry): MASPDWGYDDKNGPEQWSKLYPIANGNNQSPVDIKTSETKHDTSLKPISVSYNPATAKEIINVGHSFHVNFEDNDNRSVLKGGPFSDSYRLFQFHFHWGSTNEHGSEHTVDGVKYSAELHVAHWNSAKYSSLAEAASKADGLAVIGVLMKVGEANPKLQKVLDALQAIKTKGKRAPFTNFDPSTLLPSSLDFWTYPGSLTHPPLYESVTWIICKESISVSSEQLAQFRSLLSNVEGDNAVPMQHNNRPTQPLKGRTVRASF
Compound,pKi [1],pKi [2],pKi [3],pKi [4]
CCN(CC)C(=S)S [DITIOCARB SODIUM],6.10,4.25,2.83,–
S=C(S)S [SODIUM CARBONOTRITHIOATE],5.06,3.37,1.44,–
O=S(=O)(O)NS(=O)(=O)O [SODIUM IMINODISULFONATE],3.51,3.01,1.41,–
O=S(=O)(O)OOS(=O)(=O)O [SODIUM PERSULFATE],–,2.37,2.51,–
O=P(O)(O)OP(=O)(O)O [SODIUM PYROPHOSPHATE],1.59,3.14,3.06,–
O=S(=O)(O)OS(=O)(=O)O [SODIUM PYROSULFATE],3.00,3.15,3.12,3.01
O=[Se](=O)(O)O [SODIUM SELENATE],0.93,0.32,0.67,–
N#C[SeH] [SODIUM SELENOCYANATE],4.07,1.58,2.96,–
O=[Te](=O)(O)O [SODIUM TELLURATE],3.18,3.42,3.34,–
